Experimental findings from the METLIN SMRT retention time set (Domingo-Almenara et al. 2019) are described below.

The nature of this data set: gradient 5% acetonitrile 3 min, to 50% in 2 min, to 85% in 15 min, held 3 min, 100 µL/min. The conditions noted are these: column: Zorbax Extend-C18 2.1 x 50 mm; eluents: water / acetonitrile, 0.1% formic acid. The gist of the method:
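A Zorbax Extend-C18 column (2.1 × 50 mm, 1.8 μm) run at 100 μL/min with water and acetonitrile, both containing 0.1% formic acid, separated mixtures of ~100 pure standards. The HPLC was coupled to a quadrupole time-of-flight mass spectrometer operated in positive and negative ionization mode, with dead and dwell volumes of 40 μL and 900 μL. Each retention time was taken from a computationally picked adduct peak that was then manually inspected.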
As for `Cc1cc(C)c2c(N3CCOCC3)nc(C(=O)NCc3cc(F)ccc3F)nc2n1`, the RP-LC retention time was found to be 590 s.

Molecule `CCCS(=O)(=O)c1nc2ccc(NS(=O)(=O)c3ccc(Cl)cc3)cc2s1` had an RP-LC retention time of 984 s.

Consider `CCOC(=O)C1=C(CN2CCC(c3ccc(C)cc3)C2)NC(=O)NC1c1cccc(OC)c1OC` (centres undefined), for which the RP-LC retention time came to 713 s.

Molecule `CN1CCN(C(=O)c2cc3n(n2)CC(C)(C(=O)NCc2ccc(F)cc2)N(C)C3=O)CC1` (centres undefined) showed an RP-LC retention time of 576 s.

The molecule `CC(C)[C@@H](CN1CC[C@@](C)(c2cccc(O)c2)[C@@H](C)C1)NC(=O)[C@H]1Cc2ccc(O)cc2CN1` showed an RP-LC retention time of 555 s.

The molecule `O=C(c1cnccn1)N1CC(F)(F)C[C@H]1c1nc(C2CC2)no1` yielded an RP-LC retention time of 746 s.

Take `COc1ccc(-c2noc(Cn3nc(-c4ccc(C)cc4)ccc3=O)n2)c(OC)c1`: the RP-LC retention time came out at 949 s.

For `CCC(=O)N1CCc2ccccc2C1C(=O)NCc1ccc(Br)cc1` (centres undefined), the RP-LC retention time worked out at 887 s.

`CCOc1ccc(S(=O)(=O)N2CCCC(C(=O)NCCCO)C2)cc1C` (centres undefined) displayed an RP-LC retention time of 736 s.

`Cc1ccc(Cn2nc3c(S(=O)(=O)N4CCOCC4)cccn3c2=O)cc1` returned an RP-LC retention time of 774 s.

As for `CC(C)(C)c1noc(-c2ccnc(-n3cnc(C(=O)NC4CC4)c3)c2)n1`, the RP-LC retention time worked out at 877 s.

`COCCCNC(=O)C1c2ccccc2CC(=O)N1C(C)C` (centres undefined): the RP-LC retention time worked out at 651 s.

`CC(=O)Nc1c(C)nn(-c2ccccc2)c1N1CCC(C(=O)Nc2cccc(C(C)=O)c2)CC1`: the RP-LC retention time is 709 s.

In turn, `Cc1nn(CC(=O)NC2CCCCCC2)c(=O)c2nn(-c3ccccc3)c(C)c12` showed an RP-LC retention time of 822 s.

In turn, `CCc1nc2cccnc2n1C1CCN(C(=O)c2ccc(C(F)(F)F)cc2)C1` (centres undefined) came in with an RP-LC retention time of 649 s.

In the case of `CCn1ncn2cc(S(=O)(=O)Nc3ccccc3F)cc2c1=O`, the RP-LC retention time was determined as 830 s.

`CCOC(=O)C1CCCN(C(=O)c2csc3nc(-c4ccc(F)cc4)cn23)C1` (centres undefined) had an RP-LC retention time of 854 s.

Regarding `Cc1nn(-c2ccc(F)cc2)c2nc(N3CCCC(C(=O)NCc4cccc(F)c4)C3)sc12` (centres undefined), the RP-LC retention time turned out to be 1130 s.

`COc1cc(NC(=O)Cn2nc3nc(N4CCCC4)ccn3c2=O)cc(OC)c1` yielded an RP-LC retention time of 643 s.

The molecule `COc1cccc(CNC(=O)CCc2c(-c3ccc(Br)cc3)nc3ccccn23)c1` came in with an RP-LC retention time of 698 s.

As for `CCCn1cc(CCNC(=O)Nc2ccc(F)c(Cl)c2)c2cccnc21`, the RP-LC retention time was determined as 835 s.

Take `O=C(c1ccccc1)N1CCN(C(=O)N(c2ccccc2)c2ccccc2)CC1`: the RP-LC retention time came to 808 s.

For `Cc1c(C(=O)NC2CC2)cnn1-c1ccc(-c2nc(C(C)(C)C)no2)cn1`, the RP-LC retention time is 947 s.

On to `COCCN1CCCCc2cc(C(N)=O)sc21`, for which the RP-LC retention time came to 708 s.

As to `CCOc1ccccc1NC(=O)N1c2ccccc2CC1c1nc(C(C)C)no1` (centres undefined), the RP-LC retention time was 1220 s.

Take `Cc1ccc(-n2nnnc2-c2cccnc2)cc1`: the RP-LC retention time was found to be 649 s.

The molecule `CCc1ccc(C2=C(C)C(N3CCCN(C(=O)CC4CCCC4)CC3)=NS2(=O)=O)cc1` displayed an RP-LC retention time of 984 s.

For the molecule `Cc1cccc(NC(=O)C(=O)NCc2ccccn2)n1`, the RP-LC retention time came out at 565 s.

Take `CCOc1ccc(CCNC(=O)Cn2ncc3ccccc32)cc1OCC`: the RP-LC retention time is 845 s.

`COc1ccc(NC(=O)Cc2c(C)nn(-c3nc(-c4ccccc4)cs3)c2C)c(OC)c1` had an RP-LC retention time of 1160 s.

In the case of `Cc1nn(CC(=O)NCCc2c[nH]c3ccc(Cl)cc23)c(=O)c2noc(C)c12`, the RP-LC retention time worked out at 766 s.

On to `CCCc1ccc(S(=O)(=O)N2C[C@@H](F)C[C@H]2C(=O)N2CCc3ccccc3C2)cc1`, for which the RP-LC retention time stood at 1060 s.

`CCc1ccccc1NS(=O)(=O)c1cc(-c2[nH]ncc2C(=O)N2CCCCC2)oc1C` registered an RP-LC retention time of 799 s.

`N#CCCSc1nnc2sc3ccccc3n12`: the RP-LC retention time worked out at 828 s.

`N#CCNC(=O)c1ccc(-c2ccnc(Nc3ccc(N4CCOCC4)cc3)n2)cc1` yielded an RP-LC retention time of 719 s.

`CCc1c(C)nc2nc(-c3ccccc3)nn2c1Nc1cccc(OC)c1` registered an RP-LC retention time of 989 s.

Molecule `Cc1nncn1C1CN(C(=O)c2ccc(N(C)C)cc2)C1` had an RP-LC retention time of 602 s.

The molecule `Cc1occc1C(=O)N1CCCn2ccnc2C1c1cnn(C)c1` (centres undefined) displayed an RP-LC retention time of 573 s.

`CCN1C(=O)c2ccccc2S(=O)(=O)c2ccc(C(=O)N3CCN(c4ccccn4)CC3)cc21` showed an RP-LC retention time of 615 s.

Molecule `CC(=O)N(CC(=O)N1CCc2sccc2C1COc1ccc(F)cc1)CC1CCCO1` (centres undefined) gave an RP-LC retention time of 813 s.

For the molecule `CCOc1cccc(CNC(=O)c2ccc3c(=O)n(Cc4ccccc4)c(N(CC)CC)nc3c2)c1`, the RP-LC retention time came out at 1170 s.

The molecule `Cc1ccc(N2CCC(NC(=O)Nc3ccc(F)cc3)C2=O)cc1` (centres undefined) displayed an RP-LC retention time of 846 s.

In the case of `CC(C)n1c(N2CCCN(C(=O)c3ccncc3)CC2)cc(=O)n(C(C)C)c1=O`, the RP-LC retention time was found to be 621 s.

As for `CCOc1ccc(-c2noc(Cn3nc(-c4ccccc4F)ccc3=O)n2)cc1OC`, the RP-LC retention time is 964 s.

Take `COc1cc(-c2noc(C3CC(=O)N(c4ccc(C)cc4)C3)n2)cc(OC)c1OC` (centres undefined): the RP-LC retention time was determined as 902 s.

`Cc1ccc(-c2cc(C(=O)NCCN3CCN(C)CC3)n(C)c2)cc1`: the RP-LC retention time turned out to be 624 s.

In turn, `Cc1nn(-c2ccc(-c3ccccc3)nn2)c(C)c1S(=O)(=O)N1CCCC1` gave an RP-LC retention time of 996 s.

Turning to `O=C(NCCc1ccccn1)c1sc2ncccc2c1-n1cccc1`, the RP-LC retention time was found to be 610 s.

Regarding `Cc1ccccc1CNC(=O)C1(C)CCCN(C(=O)NCc2ccc(F)cc2)C1` (centres undefined), the RP-LC retention time came to 890 s.

`O=C(Cc1cccc(F)c1)N1CCc2nc(-c3ccc(Cl)cc3)ncc2C1` gave an RP-LC retention time of 1060 s.

In the case of `Cc1ccc(-n2c(=O)c3c(cc(C)n3C)n(CC(=O)Nc3cccc(Br)c3)c2=O)cc1`, the RP-LC retention time came to 883 s.

As for `C#CCOCC(O)CN1CCN(C(c2ccccc2)c2ccccc2)CC1` (centres undefined), the RP-LC retention time was found to be 606 s.

On to `O=C(Cc1ccc(S(=O)(=O)N2CCN(c3ccccn3)CC2)s1)N1CCOCC1`, for which the RP-LC retention time came to 1260 s.

Molecule `O=C(Cc1ccc(Cl)cc1)NCCOc1ccccc1` returned an RP-LC retention time of 844 s.

Consider `O=C(Nc1ccc2c(c1)C(=O)NC2=O)c1cccc([N+](=O)[O-])c1`, for which the RP-LC retention time came out at 696 s.

Turning to `COc1ccc(CN2CC[C@@H]3CN(S(C)(=O)=O)[C@@H]3C2)cc1C`, the RP-LC retention time worked out at 617 s.

`CCOC(=O)c1cccc(Nc2nc(-c3cccnc3)nc3ccccc23)c1`: the RP-LC retention time came to 832 s.

`Cc1ccc(-n2cc3c(c(C(=O)Nc4ccc(C)cn4)c2=O)CC(C)(C)CC3=O)cc1` yielded an RP-LC retention time of 961 s.

Take `COc1ccc(Cl)c2c(=O)c3c([nH]c12)CCN(CC(=O)Nc1cccc(C)c1)C3`: the RP-LC retention time is 627 s.

On to `CCOC(=O)CNC(=O)CN(C(=O)N1CCN(C)CC1)S(=O)(=O)c1ccc(C)cc1`, for which the RP-LC retention time stood at 556 s.

`CN1C(=O)NC2(CCN(S(=O)(=O)c3cccs3)CC2)C1=O`: the RP-LC retention time turned out to be 640 s.

As to `CC1CCN(S(=O)(=O)c2ccc(-c3nnc(C(=O)NCCCN4CCCC4=O)o3)cc2)CC1`, the RP-LC retention time came out at 792 s.

Take `Cc1ccsc1CCNC(=O)Cn1nc(C(=O)N2CCCC2)c2ccccc21`: the RP-LC retention time was determined as 824 s.

Regarding `Cc1cccc(CNC(=O)C2CCN(C(=O)c3ncn4c3COC(c3ccccc3)C4)CC2)c1` (centres undefined), the RP-LC retention time was determined as 879 s.

For the molecule `COc1ccc(C2CC(=O)N(c3cccc(Br)c3)C(=O)C2)cc1`, the RP-LC retention time amounted to 970 s.

`COCCc1noc(C2CN(C(=O)c3ccoc3)C2)n1` showed an RP-LC retention time of 629 s.

`O=C(Cn1cccc1-c1nnc(-c2ccccc2)o1)N1CCN(C2CCCCC2)CC1`: the RP-LC retention time amounted to 687 s.

For the molecule `CCc1nc(-c2ccc3c(c2)CCN3C(=O)c2ccco2)no1`, the RP-LC retention time worked out at 914 s.

`Cc1cccc(S(=O)(=O)NCc2c(-c3ccccc3)nc3sc(C)nn23)c1`: the RP-LC retention time is 802 s.

`CC(C)(C)C1(C)NN=C2Sc3ccccc3N21` (centres undefined) gave an RP-LC retention time of 1030 s.

`Cc1cc(C)cc(Oc2nccn3c(=O)n(CC(=O)Nc4ccccc4)nc23)c1`: the RP-LC retention time was found to be 922 s.

Turning to `CC(C)(C)c1noc(Cc2nnc(-c3ccc(F)cc3)o2)n1`, the RP-LC retention time worked out at 942 s.

Consider `CCCNC(=O)CCc1nc2ccccc2n(CC(=O)Nc2ccc(OC)cc2)c1=O`, for which the RP-LC retention time was 746 s.

`Cc1ccc(NS(=O)(=O)c2cc3c(=O)n(C)ncn3c2)cc1F` returned an RP-LC retention time of 841 s.

Turning to `O=C(NCc1cccs1)c1cccc2cnccc12`, the RP-LC retention time is 589 s.

For `COc1cc(CNC(=O)c2cc(C(C)(C)C)n3nccc3n2)cc(OC)c1`, the RP-LC retention time was 1110 s.

In turn, `COc1ccc(Cc2c(C)nn(-c3nc(C)c(C(=O)N4CCOCC4)s3)c2C)cc1` came in with an RP-LC retention time of 1020 s.

On to `CCc1nnc2ccc(NC(=O)Nc3cccc(F)c3)cn12`, for which the RP-LC retention time turned out to be 710 s.

`Cc1ccc(NS(=O)(=O)c2ccc3c(c2)C(=O)N(C)c2ncccc2O3)cc1` had an RP-LC retention time of 914 s.
